These results are taken from ChEMBL document CHEMBL5465560, “Selectivity Literature for EUbOPEN Chemogenomic Library” (2024).

As usually defined, the pIC50 is the IC50 on a negative log10 scale, so that one unit is a factor of ten.

pIC50: −log10 of the molar value.

Test [1] addresses T1, Dual specificity mitogen-activated protein kinase kinase 3 (Homo sapiens) (UniProt P46734).
T1 sequence (whole entry): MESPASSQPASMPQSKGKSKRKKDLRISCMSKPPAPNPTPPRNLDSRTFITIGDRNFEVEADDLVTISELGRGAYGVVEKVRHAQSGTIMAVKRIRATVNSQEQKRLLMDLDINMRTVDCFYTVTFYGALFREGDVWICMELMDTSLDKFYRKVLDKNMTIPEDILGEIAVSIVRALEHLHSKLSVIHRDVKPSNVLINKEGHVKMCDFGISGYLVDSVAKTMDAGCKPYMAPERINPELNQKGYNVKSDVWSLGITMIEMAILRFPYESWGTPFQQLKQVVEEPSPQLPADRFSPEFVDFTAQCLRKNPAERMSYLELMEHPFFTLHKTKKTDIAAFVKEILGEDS
Description: Selectivity interaction (ActivX KiNativ screen (ex vivo kinase selectivity in human PBMCs)) EUB0001619a MAP2K3. It counts as cell-based. Particulars: PBMC, at 1 µM.

For test [2], the target named is Protein kinase C eta type (Homo sapiens) (UniProt P24723). The test can be described thus: Selectivity interaction (KinomeScan (DiscoverX)) EUB0000607a PRKCH. The note with it: at 10 µM.
Protein kinase C eta type (Homo sapiens), sequence (P24723 whole entry): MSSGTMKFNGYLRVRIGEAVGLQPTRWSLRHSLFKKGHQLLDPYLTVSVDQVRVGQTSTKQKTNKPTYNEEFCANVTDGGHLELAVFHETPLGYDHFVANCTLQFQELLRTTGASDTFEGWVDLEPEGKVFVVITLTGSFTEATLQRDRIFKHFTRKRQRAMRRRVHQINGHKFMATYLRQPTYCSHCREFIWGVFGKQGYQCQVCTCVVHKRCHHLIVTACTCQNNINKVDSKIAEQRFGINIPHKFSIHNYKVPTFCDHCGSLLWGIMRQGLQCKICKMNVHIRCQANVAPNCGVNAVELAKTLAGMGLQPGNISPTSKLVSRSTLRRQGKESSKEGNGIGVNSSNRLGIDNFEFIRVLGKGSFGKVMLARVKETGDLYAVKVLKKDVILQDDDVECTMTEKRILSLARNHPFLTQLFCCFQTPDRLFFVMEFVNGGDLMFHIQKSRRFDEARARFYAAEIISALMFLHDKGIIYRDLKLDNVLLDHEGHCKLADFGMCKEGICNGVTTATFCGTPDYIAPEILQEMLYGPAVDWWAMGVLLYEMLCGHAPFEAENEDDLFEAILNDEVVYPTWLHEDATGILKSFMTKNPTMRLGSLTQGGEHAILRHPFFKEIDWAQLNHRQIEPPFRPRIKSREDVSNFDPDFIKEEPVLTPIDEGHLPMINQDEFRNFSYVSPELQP
In test [3] the target is Serine/threonine-protein kinase OSR1 (Homo sapiens) (UniProt O95747). The test can be described thus: Selectivity interaction (Kinase panel (DSF assay)) EUB0001559a OXSR1. Background: DSF heats the sample and reads unfolding from a dye or from intrinsic fluorescence.
Serine/threonine-protein kinase OSR1 (Homo sapiens), sequence (O95747 2-527 limits assumed): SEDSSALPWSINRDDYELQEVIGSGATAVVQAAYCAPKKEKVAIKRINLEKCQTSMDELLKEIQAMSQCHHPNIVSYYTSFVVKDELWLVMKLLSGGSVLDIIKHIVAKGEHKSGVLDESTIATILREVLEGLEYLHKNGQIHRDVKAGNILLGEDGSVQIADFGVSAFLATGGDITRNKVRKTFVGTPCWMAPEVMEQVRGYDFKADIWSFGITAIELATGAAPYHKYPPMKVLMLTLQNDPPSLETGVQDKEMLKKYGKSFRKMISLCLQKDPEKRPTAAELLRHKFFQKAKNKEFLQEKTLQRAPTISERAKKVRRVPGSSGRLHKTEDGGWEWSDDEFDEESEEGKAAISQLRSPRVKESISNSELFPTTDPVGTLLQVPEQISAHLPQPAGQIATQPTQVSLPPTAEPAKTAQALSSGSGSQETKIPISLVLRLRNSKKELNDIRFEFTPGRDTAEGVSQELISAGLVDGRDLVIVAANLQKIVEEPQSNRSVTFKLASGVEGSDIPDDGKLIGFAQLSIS
Test [4] deals with Mitogen-activated protein kinase kinase kinase 4 (Homo sapiens) (UniProt Q9Y6R4). Description: Selectivity interaction (Ambit KINOMEscan and KiNATiv profiling in Jurkat cells) EUB0000090b MAP3K4. The class given is cell-based. The note with it: at 1 µM.
The target in test [5] is Beta-1 adrenergic receptor (Homo sapiens, UniProt P08588). Description: Selectivity interaction (Beta 1 adrenergic receptor assay, human recombinant ) EUB0000877a ADRB1.
Beta-1 adrenergic receptor, sequence (P08588 whole entry): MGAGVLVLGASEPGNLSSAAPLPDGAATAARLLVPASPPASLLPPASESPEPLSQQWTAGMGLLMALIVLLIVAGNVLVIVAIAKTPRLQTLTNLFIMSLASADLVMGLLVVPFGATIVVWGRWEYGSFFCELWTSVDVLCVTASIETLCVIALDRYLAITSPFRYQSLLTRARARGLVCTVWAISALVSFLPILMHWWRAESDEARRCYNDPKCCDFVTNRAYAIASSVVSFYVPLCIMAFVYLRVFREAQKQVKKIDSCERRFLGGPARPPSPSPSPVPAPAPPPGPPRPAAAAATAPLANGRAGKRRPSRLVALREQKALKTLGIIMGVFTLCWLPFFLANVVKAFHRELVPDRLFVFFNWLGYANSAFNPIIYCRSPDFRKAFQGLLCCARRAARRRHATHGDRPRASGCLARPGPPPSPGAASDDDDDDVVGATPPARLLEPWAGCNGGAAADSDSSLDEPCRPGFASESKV
In test [6] the target is T2, Activin receptor type-1B (Homo sapiens) (UniProt P36896).
T2 sequence (whole entry): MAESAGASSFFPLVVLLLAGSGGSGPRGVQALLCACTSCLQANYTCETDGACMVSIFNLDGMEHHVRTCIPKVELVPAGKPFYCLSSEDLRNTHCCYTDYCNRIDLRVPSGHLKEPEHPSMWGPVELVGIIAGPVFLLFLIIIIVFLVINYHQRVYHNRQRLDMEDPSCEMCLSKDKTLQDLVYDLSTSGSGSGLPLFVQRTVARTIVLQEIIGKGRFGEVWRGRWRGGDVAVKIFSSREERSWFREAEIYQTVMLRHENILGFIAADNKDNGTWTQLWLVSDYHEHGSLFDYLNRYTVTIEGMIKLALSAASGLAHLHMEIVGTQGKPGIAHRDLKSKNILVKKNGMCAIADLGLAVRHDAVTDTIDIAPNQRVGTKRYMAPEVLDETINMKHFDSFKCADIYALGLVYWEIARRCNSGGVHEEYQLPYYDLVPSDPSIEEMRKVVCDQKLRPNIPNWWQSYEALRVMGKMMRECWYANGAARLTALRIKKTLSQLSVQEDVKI
The test can be described thus: Selectivity interaction (KinomeScan (DiscoverX)) EUB0000655a ACVR1B. The note with it: at 10 µM.

Test [7] has as its target Tyrosine-protein kinase ABL1 (Homo sapiens, UniProt P00519). Description: (§1) Selectivity interaction (KinomeScan (DiscoverX)) EUB0000655a ABL1. Particulars: at 10 µM.
The test system of test [8] is Tyrosine-protein kinase ABL1 (Homo sapiens), P00519 [T315I]. The description is as §1. Particulars: at 10 µM.
Test [9] deals with Transcription initiation factor TFIID subunit 1 (Homo sapiens) (UniProt P21675). Description: Selectivity interaction (Bromodomain panel (DSF asssay)) EUB0000270b TAF1.
Transcription initiation factor TFIID subunit 1 (Homo sapiens), sequence (P21675 whole entry): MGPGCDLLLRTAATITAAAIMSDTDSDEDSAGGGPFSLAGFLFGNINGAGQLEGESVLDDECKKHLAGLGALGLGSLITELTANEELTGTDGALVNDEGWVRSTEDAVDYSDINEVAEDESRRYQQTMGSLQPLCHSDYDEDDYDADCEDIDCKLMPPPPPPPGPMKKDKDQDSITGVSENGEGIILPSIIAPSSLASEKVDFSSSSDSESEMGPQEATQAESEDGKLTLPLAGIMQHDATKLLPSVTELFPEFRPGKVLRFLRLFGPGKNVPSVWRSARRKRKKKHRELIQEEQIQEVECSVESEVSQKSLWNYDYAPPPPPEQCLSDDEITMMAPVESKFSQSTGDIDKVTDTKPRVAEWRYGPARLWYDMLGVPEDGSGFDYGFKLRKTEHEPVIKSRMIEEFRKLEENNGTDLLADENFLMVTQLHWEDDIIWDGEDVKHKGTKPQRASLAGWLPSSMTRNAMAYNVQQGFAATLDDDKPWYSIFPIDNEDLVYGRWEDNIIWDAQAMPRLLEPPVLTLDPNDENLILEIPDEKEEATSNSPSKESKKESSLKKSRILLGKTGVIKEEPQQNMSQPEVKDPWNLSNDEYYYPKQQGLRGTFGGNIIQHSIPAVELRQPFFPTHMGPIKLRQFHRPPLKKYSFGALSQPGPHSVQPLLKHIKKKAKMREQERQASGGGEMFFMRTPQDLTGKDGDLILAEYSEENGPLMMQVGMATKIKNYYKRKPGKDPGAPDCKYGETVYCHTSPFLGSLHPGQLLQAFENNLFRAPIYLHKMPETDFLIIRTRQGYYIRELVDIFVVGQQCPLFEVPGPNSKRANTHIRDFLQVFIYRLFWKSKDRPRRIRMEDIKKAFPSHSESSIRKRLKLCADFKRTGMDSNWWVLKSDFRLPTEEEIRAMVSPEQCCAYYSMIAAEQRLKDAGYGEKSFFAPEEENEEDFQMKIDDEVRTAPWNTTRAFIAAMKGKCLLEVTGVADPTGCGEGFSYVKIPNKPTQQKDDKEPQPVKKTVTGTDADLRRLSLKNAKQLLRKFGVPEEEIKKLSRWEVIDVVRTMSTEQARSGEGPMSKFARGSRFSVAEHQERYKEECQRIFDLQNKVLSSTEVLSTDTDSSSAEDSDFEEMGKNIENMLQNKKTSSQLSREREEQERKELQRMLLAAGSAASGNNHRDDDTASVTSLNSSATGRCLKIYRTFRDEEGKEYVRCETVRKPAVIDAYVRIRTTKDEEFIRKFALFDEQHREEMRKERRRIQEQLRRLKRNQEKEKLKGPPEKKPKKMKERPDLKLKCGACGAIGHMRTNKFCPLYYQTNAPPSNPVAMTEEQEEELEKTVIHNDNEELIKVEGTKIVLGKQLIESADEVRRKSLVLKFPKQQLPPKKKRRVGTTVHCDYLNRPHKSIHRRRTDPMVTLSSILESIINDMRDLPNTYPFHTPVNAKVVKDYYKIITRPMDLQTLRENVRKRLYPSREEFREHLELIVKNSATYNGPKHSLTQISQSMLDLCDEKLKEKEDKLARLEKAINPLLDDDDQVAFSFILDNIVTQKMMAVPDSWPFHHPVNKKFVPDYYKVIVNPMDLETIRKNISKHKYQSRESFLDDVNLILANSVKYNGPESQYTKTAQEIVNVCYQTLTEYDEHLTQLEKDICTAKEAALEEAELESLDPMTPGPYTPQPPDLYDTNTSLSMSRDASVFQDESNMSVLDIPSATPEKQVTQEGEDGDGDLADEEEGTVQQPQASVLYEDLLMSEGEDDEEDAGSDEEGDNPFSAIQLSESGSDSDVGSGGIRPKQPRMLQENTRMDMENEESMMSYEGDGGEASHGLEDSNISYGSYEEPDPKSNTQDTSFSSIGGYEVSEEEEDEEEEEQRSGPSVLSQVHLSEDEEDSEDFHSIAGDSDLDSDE
Test [10] concerns the target T3, Serine/threonine-protein kinase BRSK1 (Homo sapiens) (UniProt Q8TDC3).
T3 sequence (whole entry): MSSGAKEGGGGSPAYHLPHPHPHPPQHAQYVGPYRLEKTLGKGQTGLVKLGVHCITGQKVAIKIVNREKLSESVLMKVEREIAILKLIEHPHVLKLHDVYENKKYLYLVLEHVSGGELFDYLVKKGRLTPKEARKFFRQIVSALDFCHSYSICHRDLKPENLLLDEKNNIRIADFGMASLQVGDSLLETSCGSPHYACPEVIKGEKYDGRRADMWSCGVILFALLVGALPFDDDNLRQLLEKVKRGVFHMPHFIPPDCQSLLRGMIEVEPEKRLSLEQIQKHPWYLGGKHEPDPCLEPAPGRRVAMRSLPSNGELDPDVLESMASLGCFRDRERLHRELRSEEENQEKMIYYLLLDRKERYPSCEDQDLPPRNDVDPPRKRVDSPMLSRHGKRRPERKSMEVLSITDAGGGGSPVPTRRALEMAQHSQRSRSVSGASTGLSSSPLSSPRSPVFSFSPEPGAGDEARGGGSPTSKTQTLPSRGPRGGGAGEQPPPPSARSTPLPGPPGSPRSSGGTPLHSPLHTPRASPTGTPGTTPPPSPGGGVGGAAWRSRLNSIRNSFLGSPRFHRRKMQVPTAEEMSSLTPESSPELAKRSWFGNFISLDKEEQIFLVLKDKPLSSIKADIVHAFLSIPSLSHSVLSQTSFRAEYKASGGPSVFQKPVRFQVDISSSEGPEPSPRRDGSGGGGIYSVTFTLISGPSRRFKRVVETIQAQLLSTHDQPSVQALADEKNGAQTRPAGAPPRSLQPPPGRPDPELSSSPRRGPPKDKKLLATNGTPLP
Description: Selectivity interaction (KinomeScan (DiscoverX)) EUB0000618a BRSK1. The note with it: at 10 µM.

Test [11] concerns the target Serine/threonine-protein kinase 38 (Homo sapiens) (UniProt Q15208). The test can be described thus: Selectivity interaction (KinomeScan (DiscoverX)) EUB0001079a STK38. Particulars: at 1 µM.
The target of test [12] is Ribosomal protein S6 kinase alpha-3 (Homo sapiens, UniProt P51812). The test can be described thus: Selectivity interaction (Kinase panel (KiNativ target engagement assay in Jurkat cells)) EUB0001635a RPS6KA3. It counts as cell-based. Particulars: Selectivity number of off-targets 0.0, Selectivity number of targets 233.0, Source Knowledge https://www.sciencedirect.com/science/article/pii/S2451945619300674?via%3Dihub, at 1 µM.
Ribosomal protein S6 kinase alpha-3, sequence (P51812 whole entry): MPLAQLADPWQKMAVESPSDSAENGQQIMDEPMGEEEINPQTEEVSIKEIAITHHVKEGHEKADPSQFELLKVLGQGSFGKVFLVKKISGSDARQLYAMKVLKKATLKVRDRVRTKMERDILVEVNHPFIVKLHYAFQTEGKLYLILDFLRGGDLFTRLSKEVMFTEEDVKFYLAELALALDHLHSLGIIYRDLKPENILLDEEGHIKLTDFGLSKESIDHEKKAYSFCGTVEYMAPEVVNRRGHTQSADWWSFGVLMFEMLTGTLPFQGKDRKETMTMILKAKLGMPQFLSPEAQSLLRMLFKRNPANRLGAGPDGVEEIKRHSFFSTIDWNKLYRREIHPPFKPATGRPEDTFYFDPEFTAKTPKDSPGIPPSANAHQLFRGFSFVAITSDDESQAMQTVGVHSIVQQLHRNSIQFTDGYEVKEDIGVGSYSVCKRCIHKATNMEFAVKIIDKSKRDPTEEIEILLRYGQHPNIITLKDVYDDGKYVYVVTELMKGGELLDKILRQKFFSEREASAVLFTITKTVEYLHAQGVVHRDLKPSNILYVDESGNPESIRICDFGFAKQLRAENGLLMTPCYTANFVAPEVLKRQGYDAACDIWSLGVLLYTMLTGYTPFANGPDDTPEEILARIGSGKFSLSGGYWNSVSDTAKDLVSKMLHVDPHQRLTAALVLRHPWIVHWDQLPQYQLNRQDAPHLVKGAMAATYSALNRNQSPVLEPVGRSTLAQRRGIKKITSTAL

Test [13] concerns the target Phosphatidylinositol 4,5-bisphosphate 3-kinase catalytic subunit gamma isoform (Homo sapiens) (UniProt P48736). The test can be described thus: Selectivity interaction (Kinase panel (KiNativ target engagement assay in Jurkat cells)) EUB0001635a PIK3CG. It counts as cell-based. Particulars: at 1 µM.

Serine/threonine-protein kinase 38 (Homo sapiens), sequence (Q15208 2-465 limits assumed): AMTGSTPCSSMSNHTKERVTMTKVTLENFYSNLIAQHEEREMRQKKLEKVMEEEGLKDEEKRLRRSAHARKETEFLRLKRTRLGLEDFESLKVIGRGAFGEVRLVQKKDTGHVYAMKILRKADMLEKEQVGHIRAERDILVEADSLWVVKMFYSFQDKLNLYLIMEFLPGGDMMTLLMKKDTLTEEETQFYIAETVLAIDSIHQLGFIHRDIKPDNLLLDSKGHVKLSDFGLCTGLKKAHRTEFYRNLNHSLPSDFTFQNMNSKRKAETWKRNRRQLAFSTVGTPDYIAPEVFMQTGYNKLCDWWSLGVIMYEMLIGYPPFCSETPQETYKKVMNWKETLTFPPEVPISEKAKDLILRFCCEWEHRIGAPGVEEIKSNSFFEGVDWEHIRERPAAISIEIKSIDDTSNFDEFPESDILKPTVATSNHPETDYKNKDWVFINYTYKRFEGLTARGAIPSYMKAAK

As for `N#Cc1cccc(-c2c[nH]c3ncnc(N4CCOCC4)c23)c1`, the % of inhibition in [1] is 6%. `CNC(=O)Nc1ccc(-c2nc(N3CC4CCC(C3)O4)c3cnn(C4CCC5(CC4)OCCO5)c3n2)cc1` returned a % of control in [2] of 91%.

In [3], `CN(C(=O)c1cnn2cccnc12)c1cc2c(cc1N1CCOCC1)C(=O)N(C[C@@H](F)C(C)(C)O)C2` yielded a dTM of 0.3 K. In test [4], `CN(C)C/C=C/C(=O)Nc1ccc(C(=O)N2CCCC(Nc3ncc(Cl)c(-c4c[nH]c5ccccc45)n3)C2)cc1` (stereo not drawn) had a % of control of 64%. With `CCC(=O)N1CC[C@H](Nc2ncnc3c2CN(c2cnc(OC)c(C(F)(F)F)c2)CC3)C1` [LENIOLISIB], the pIC50 in test [5] was below 4.52. Consider `CN(C)CCOc1ccc(-c2nc(-c3ccncc3)c(-c3ccc4c(c3)CC/C4=N\O)[nH]2)cc1`, for which the % of control in test [6] worked out at 40%; in [7], 10%; in [8], 1.6%. `Cc1cc(CN)cc(C)c1-c1ncn(C)c1-c1cncn1C` gave a dTM in [9] of -1.15 K. The compound `O[C@H]1CC[C@H](Nc2ncc3nc(Nc4c(F)cc(F)cc4F)n([C@H]4CCOC4)c3n2)CC1` showed a % of control in test [10] of 86%. Consider `Nc1cnc(N2CCc3cc(S(=O)(=O)Nc4c(F)cc(Cl)cc4F)cc(N4CCCC4=O)c32)nc1` [TP-020n], for which the % of control in test [11] stood at 99%. For `C=CC(=O)Nc1ccc(C(=O)Nc2[nH]nc3c2CN(C(=O)N[C@H](CN(C)C)c2ccccc2)C3(C)C)cc1`, the values for the % of engagement in [12] and in test [13] were -18.2% and -3.7%, respectively.
